Paper PMC9019904, “AD Informer Set: Chemical tools to facilitate Alzheimer's disease drug discovery” (Alzheimer's & Dementia : Translational Research & Clinical …, 2022)

Key:
[1] = tested on: HMC3 (human microglia) cell line; assay: pHrodo-myelin phagocytosis/cell viability high content imaging assay: phagocytosis signal; assay type: cell-based
In short: (§1)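 Mouse BV2 and human HMC3 microglia given pHrodo-myelin; phagocytosis and cell viability imaged together by high content imaging about 22 hours after myelin addition. Three measurements extracted, including intensity increase and decrease marking early and later apoptosis.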

[2] = tested on: BV2 (mouse microglia) cell line; assay: as above; assay type: cell-based
In short: as §1

[3] = tested on: HMC3 (human microglia) cell line; assay: pHrodo-myelin phagocytosis/cell viability high content imaging assay: viability (cell count, nuclear area, nuclear intensity); settings: 48 hours treatment
In short: (§2)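 Cells adhered overnight, then were exposed to compounds at a single 10 μM for 48 h in total, with pHrodo-myelin added for the last 20 h. High-content imaging gave cell count per well as the main viability measure plus mean nuclear intensity per cell. Duplicate wells were averaged and expressed as % of untreated control.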

[4] = tested on: BV2 (mouse microglia) cell line; assay: as above; settings: 48 hours treatment
In short: as §2

[5] = HMC3 cells, 10 uM compound, 48 hours treatment, pHrodo-myelin final 20 hours
[6] = BV2 cells, 10 uM compound, 48 hours treatment, pHrodo-myelin final 20 hours
[7] = HMC3, compound 10 uM, pHrodo-myelin
[8] = BV2, compound 10 uM, pHrodo-myelin

| SMILES | 4. Phagocytosis (% control) [1, 5] | 4. Phagocytosis (% control) [2, 6] | 1. Cell count (% control) ([3]; HMC3 cells, 10 uM compound) | 2. Nuclear Area (% Control) ([3]; HMC3 cells, 10 uM compound) | 3. Nuclear DNA Intensity (% control) ([3]; HMC3 cells, 10 uM compound) | 1. Cell count (% control) ([4]; BV2 cells, 10 uM compound) | 2. Nuclear Area (% Control) ([4]; BV2 cells, 10 uM compound) | 3. Nuclear DNA Intensity (% control) ([4]; BV2 cells, 10 uM compound) | 4. Phagocytosis (% control) [1, 7] | 4. Phagocytosis (% control) [2, 8] | 1. Cell count (% control) ([3]; HMC3, compound 10 uM) | 2. Nuclear Area (% Control) ([3]; HMC3, compound 10 uM) | 3. Nuclear DNA Intensity (% control) ([3]; HMC3, compound 10 uM) | 1. Cell count (% control) ([4]; BV2, compound 10 uM) | 2. Nuclear Area (% Control) ([4]; BV2, compound 10 uM) | 3. Nuclear DNA Intensity (% control) ([4]; BV2, compound 10 uM) |
| --- | --- | --- | --- | --- | --- | --- | --- | --- | --- | --- | --- | --- | --- | --- | --- | --- |
| CN(CCOc1ccc(CC2SC(=O)NC2=O)cc1)c1ccccn1 (centres unmarked) [UNC10121399D] | 81.9 % control | 142.2 % control | 93.9 % control | 101.5 % Control | 97.8 % control | 82.8 % control | 102.9 % Control | 100.2 % control |  |  |  |  |  |  |  |  |
| Cc1cc(C)nc(NS(=O)(=O)c2ccc(NC(=O)NC(=O)c3ccc(Cl)cc3Cl)cc2)n1 [UNC10303168A] |  |  |  |  |  |  |  |  | 88.1 % control | 118.2 % control | 129.3 % control | 101.5 % Control | 94.7 % control | 124.0 % control | 99.5 % Control | 104.3 % control |
| O=C(Nc1ccc2[nH]nc(-c3ccncc3)c2c1)[C@@H]1CCN(CC(=O)N2CCN(c3ccc(-c4ncccn4)cc3)CC2)C1 [UNC10302854A] | 37.1 % control | 359.5 % control | 103.4 % control | 110.6 % Control | 94.1 % control | 43.5 % control | 114.7 % Control | 111.9 % control |  |  |  |  |  |  |  |  |
| C=Cc1c(C)c2cc3nc(cc4[nH]c(cc5nc(cc1[nH]2)C(C)=C5CCC(=O)O)c(CCC(=O)OC)c4C)[C@@]1(C)C3=CC=C(C(=O)OC)[C@H]1C(=O)OC [UNC10303159A] |  |  |  |  |  |  |  |  | 5.8 % control | 174.1 % control | 113.8 % control | 131.2 % Control | 126.0 % control | 114.7 % control | 121.1 % Control | 113.2 % control |
| Cc1ccc(F)c(NC(=O)Nc2ccc(-c3cccc4[nH]nc(N)c34)cc2)c1 [UNC10302874A] |  |  |  |  |  |  |  |  | 29.4 % control | 235.2 % control | 43.1 % control | 121.8 % Control | 105.6 % control | 24.4 % control | 127.6 % Control | 103.1 % control |
| CCC(=O)O[C@]1(C(=O)SCF)[C@H](C)C[C@H]2[C@@H]3C[C@H](F)C4=CC(=O)C=C[C@]4(C)[C@@]3(F)[C@@H](O)C[C@@]21C [UNC10121416A] | 94.0 % control | 95.5 % control | 136.9 % control | 109.9 % Control | 86.5 % control | 84.8 % control | 98.6 % Control | 113.9 % control |  |  |  |  |  |  |  |  |
| CCOC(=O)c1sc(NC(=O)c2ccco2)c(SC#N)c1C [UNC10302907A] | 29.4 % control | 201.8 % control | 96.1 % control | 63.3 % Control | 173.6 % control | 60.9 % control | 107.8 % Control | 107.1 % control |  |  |  |  |  |  |  |  |
| O=c1[nH]c(=O)n([C@H]2C[C@H](O)[C@@H](CO)O2)cc1/C=C/Br [UNC10100235A] | 83.2 % control | 118.4 % control | 104.1 % control | 100.7 % Control | 100.8 % control | 94.9 % control | 117.1 % Control | 94.6 % control |  |  |  |  |  |  |  |  |
| CNc1nc(C)nc(N[C@H]2CCC[C@@H](C(=O)NCc3ccc(C#N)cc3C(F)(F)F)C2)n1 [UNC10302679A] | 69.3 % control | 135.7 % control | 141.0 % control | 100.7 % Control | 92.7 % control | 107.8 % control | 106.3 % Control | 102.1 % control |  |  |  |  |  |  |  |  |
| NC(=O)[C@@H]1CC[C@H](c2ccc(OCc3ccccc3F)cc2)N1 [UNC10303186A] |  |  |  |  |  |  |  |  | 105.3 % control | 194.5 % control | 128.0 % control | 102.6 % Control | 95.0 % control | 138.2 % control | 103.3 % Control | 100.1 % control |
| CC(=O)N1CCC(NC(=O)NC23CC4CC(CC(C4)C2)C3)CC1 [UNC10302683A] | 72.2 % control | 155.4 % control | 168.7 % control | 103.9 % Control | 92.0 % control | 126.3 % control | 103.6 % Control | 107.4 % control |  |  |  |  |  |  |  |  |
| Fc1ccc(C(CCCNCC2CCc3[nH]c4ccc(F)cc4c3C2)c2ccc(F)cc2)cc1 (centres unmarked) [UNC10302893A] | 0.0 % control | 0.0 % control | 14.1 % control | 53.2 % Control | 215.4 % control | 10.4 % control | 127.3 % Control | 33.1 % control |  |  |  |  |  |  |  |  |
| COCCOCCOC(=O)N[C@@H](CC(C)C)C(=O)N[C@@H](Cc1ccccc1)C(=O)C(=O)NC1CC1 [UNC10302677A] | 70.4 % control | 132.9 % control | 142.6 % control | 102.2 % Control | 91.6 % control | 132.7 % control | 105.3 % Control | 103.4 % control |  |  |  |  |  |  |  |  |
| c1ccc(-c2nn3c(c2-c2ccnc4cc(OCCN5CCOCC5)ccc24)CCC3)nc1 [UNC10302849A] | 64.5 % control | 134.3 % control | 117.4 % control | 115.4 % Control | 85.1 % control | 150.2 % control | 109.6 % Control | 98.8 % control |  |  |  |  |  |  |  |  |
| Cc1ccccc1NC(=O)CN1C(=O)N/C(=C/c2ccccc2OCc2ccc(C(=O)O)cc2)C1=O [UNC10302882A] | 89.7 % control | 153.2 % control | 155.5 % control | 101.8 % Control | 92.5 % control | 94.9 % control | 109.5 % Control | 96.5 % control |  |  |  |  |  |  |  |  |
| O=c1ncn2nc(Sc3ccc(F)cc3F)ccc2c1-c1c(Cl)cccc1Cl [UNC10303093A] | 71.1 % control | 151.8 % control | 125.9 % control | 98.4 % Control | 98.8 % control | 114.5 % control | 100.4 % Control | 110.5 % control |  |  |  |  |  |  |  |  |
